According to patent US9724334B1, “Method for treating a neurodegenerative disease or depression comprising administering derivatives of 2-amino-2-(1-dodecyl-1H-1,2,3-triazol-4-yl)propane-1,3-diol” (Kyungpook National University Industry-Academic Cooperation …, priority 2016, dated 2017):

Tests used:
[1] = biological target: T1, ASM (acid sphingomyelinase) (Homo sapiens, UniProt P17405); test: ASM activity in fibroblasts derived from Alzheimer's disease patients (PS1 fibroblasts); assay type: cell-based; parameters: dose or concentration left out as unconfirmed; conditions: for change of ASM activity: PS1 fibroblasts with increased ASM activity, versus untreated PS1 fibroblasts
T1 construct: fibroblasts (PS1 fibroblasts) derived from Alzheimer's disease patients, followed by the measurement of the change of ASM activity; host or cells: human fibroblast cell lines (PS1, from Alzheimer's disease patients)
T1 sequence (P17405 47-631): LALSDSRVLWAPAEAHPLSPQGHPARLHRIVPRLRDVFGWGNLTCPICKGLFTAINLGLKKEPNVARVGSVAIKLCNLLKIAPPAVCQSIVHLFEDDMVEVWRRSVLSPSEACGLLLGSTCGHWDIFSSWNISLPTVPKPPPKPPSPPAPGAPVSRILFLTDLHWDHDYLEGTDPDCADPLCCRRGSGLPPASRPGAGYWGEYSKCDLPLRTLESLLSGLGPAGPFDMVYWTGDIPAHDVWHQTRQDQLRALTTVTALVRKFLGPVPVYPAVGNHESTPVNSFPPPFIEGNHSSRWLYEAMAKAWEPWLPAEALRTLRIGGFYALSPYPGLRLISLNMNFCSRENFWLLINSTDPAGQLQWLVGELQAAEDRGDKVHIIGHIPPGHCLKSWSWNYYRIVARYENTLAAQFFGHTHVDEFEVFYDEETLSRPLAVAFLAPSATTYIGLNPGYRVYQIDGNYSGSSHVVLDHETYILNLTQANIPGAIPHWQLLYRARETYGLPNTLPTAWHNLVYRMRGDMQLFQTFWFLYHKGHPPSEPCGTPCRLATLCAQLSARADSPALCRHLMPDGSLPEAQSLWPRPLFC
Description: Human fibroblast cell lines (normal and PS1) were obtained from Coriell Institute and cultured in DMEM containing 15% FBS under the condition of 5% CO2 at 37° C. Subsequently, the cell lines were treated with the ASM inhibitory compound of the Chemical Formula 1, amitriptyline (AMI) and FTY720, followed by measuring the change of ASM activity. The concentration levels of ASM were measured as follows. Specifically, a microliter mouse plasma, brain tissue and 3 μl of fibroblast samples were mixed with ASM activity buffer and stored at 37° C. 114 μl of ethanol was added to terminate the hydrolysis reaction, followed by centrifugation. 30 μl of the supernatant was transferred to a glass vial, of which 5 μl was applied to the UPLC system. The ASM concentration levels were quantified by comparison with Bodipy (aminoacetaldehyde) conjugated with sphingomyelin and ceramide. Extraction and quantification of the sphingomyelin and ceramide were performed by extracting lipids from known method samples and resuspending the dried lipid extract in 25 μl of 0.2% Igepal CA-630 (Sigma-Aldrich). Each lipid level was quantified using the UPLC system. In order to confirm the ASM inhibitory effect of the compound developed according to the present invention, the ASM inhibitory compound of the Chemical Formula 2, AMI and FTY720 were treated […] concentration, respectively, in the fibroblasts (PS1 fibroblasts) derived from Alzheimer's disease patients, followed by the measurement of the change of ASM activity.

[2] = biological target: T2, ASM (acid sphingomyelinase) (Mus musculus, UniProt Q04519); test: ASM concentration levels in plasma and brain tissue of APP/PS1 mice after feeding via drinking water; assay type: in vivo; conditions: 100 mg/kg/day via drinking water; for ASM concentration level in brain tissues / ASM concentration level in plasma: 9.5 month-old APP/PS1 mice, versus unfed APP/PS1 mice
T2 construct: from tissue; host or cells: plasma and brain tissue of APP/PS1 transgenic mice (C57BL/6 background)
T2 sequence (Q04519 45-627): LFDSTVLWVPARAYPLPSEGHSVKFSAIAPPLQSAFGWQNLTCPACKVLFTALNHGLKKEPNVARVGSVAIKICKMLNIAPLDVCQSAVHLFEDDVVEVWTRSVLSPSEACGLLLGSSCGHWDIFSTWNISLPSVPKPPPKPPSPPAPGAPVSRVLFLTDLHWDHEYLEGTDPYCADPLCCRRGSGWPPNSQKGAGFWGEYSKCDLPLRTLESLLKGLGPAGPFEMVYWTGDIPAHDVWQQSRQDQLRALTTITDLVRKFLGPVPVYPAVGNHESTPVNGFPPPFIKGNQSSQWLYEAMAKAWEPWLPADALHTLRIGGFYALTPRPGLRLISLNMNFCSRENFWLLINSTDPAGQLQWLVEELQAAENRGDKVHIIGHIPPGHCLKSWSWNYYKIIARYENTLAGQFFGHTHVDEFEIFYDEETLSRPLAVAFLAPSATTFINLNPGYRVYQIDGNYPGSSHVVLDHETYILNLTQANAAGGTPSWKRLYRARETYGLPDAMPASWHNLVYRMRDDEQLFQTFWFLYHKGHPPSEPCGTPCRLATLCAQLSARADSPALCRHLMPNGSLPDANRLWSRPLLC
Excerpt: IACUC (Kyungpook National University Institutional Animal Care and Use Committee) approved the present mouse experiment. A transgenic mouse line overexpressing APPswe (hAPP695swe) or PS1 (presenilin-1M146V) was used based on C57BL/6 mouse (Charles River, UK) (hereinafter, APP mouse: APPswe-overexpressing mouse, PS1 mouse: presenilin-1M146V overexpressing mouse; GlaxoSmithKline). To confirm the therapeutic effect of the novel ASM inhibitory compounds, the novel ASM inhibitory compound or AMI were fed via drinking water at a dose of 100 mg/kg/day to mice at 5.5 months of age. Three months after the feeding, behavioral analysis on the mice was performed, followed by sampling of mouse brain tissues (FIG. 3). The concentration levels of ASM were measured as follows. Specifically, a microliter mouse plasma, brain tissue and 3 μl of fibroblast samples were mixed with ASM activity buffer and stored at 37° C. 114 μl of ethanol was added to terminate the hydrolysis reaction, followed by centrifugation. 30 μl of the supernatant was transferred to a glass vial, of which 5 μl was applied to the UPLC system. The ASM concentration levels were quantified by comparison with Bodipy (aminoacetaldehyde) conjugated with sphingomyelin and ceramide. Extraction and quantification of the sphingomyelin and ceramide were performed by extracting lipids from known method samples and resuspending the dried lipid extract in 25 μl of 0.2% Igepal CA-630 (Sigma-Aldrich). Each lipid level was quantified using the UPLC system. Using an experimental animal model APP/PS1 mouse for Alzheimer's disease patients, ASM concentration levels in plasma and brain tissues were measured after administration of AMI, which is the most widely used as an ASM inhibitor, and the novel ASM inhibitory compound of the Chemical Formula 2.

[3] = system: APP/PS1 mice; test: Amyloid-β deposition in brain of APP/PS1 mice (thioflavin S staining, Aβ40 and Aβ42 immunofluorescence); assay type: in vivo, mouse; conditions: 100 mg/kg/day via drinking water; for Aβ40 deposition / Aβ42 deposition: brain tissue immunofluorescence; for Aβ40 deposition / Aβ42 deposition / fibrillary Aβ deposition (thioflavin S): versus APP/PS1 mice; for fibrillary Aβ deposition (thioflavin S): cerebral cortex and hippocampus
Excerpt: IACUC (Kyungpook National University Institutional Animal Care and Use Committee) approved the present mouse experiment. A transgenic mouse line overexpressing APPswe (hAPP695swe) or PS1 (presenilin-1M146V) was used based on C57BL/6 mouse (Charles River, UK) (hereinafter, APP mouse: APPswe-overexpressing mouse, PS1 mouse: presenilin-1M146V overexpressing mouse; GlaxoSmithKline).
(§1) To confirm the therapeutic effect of the novel ASM inhibitory compounds, the novel ASM inhibitory compound or AMI were fed via drinking water at a dose of 100 mg/kg/day to mice at 5.5 months of age. Three months after the feeding, behavioral analysis on the mice was performed, followed by sampling of mouse brain tissues (FIG. 3).
(§2) After fixing the cerebrum and hippocampus of the test mice, 0.5% thioflavin S (Sigma-Aldrich), anti-20G10 antibodies (Mouse, 1:1000) against Aβ, 42 and anti-G30 antibodies (rabbit, 1:1000) against Aβ, 40, anti-GFAP antibodies (rabbit, 1:500, DAKO) were cultured together. The above sites were analyzed using a laser scanning confocal microscope equipped with Fluoview SV1000 imaging software (Olympus FV1000, Japan) or an Olympus BX51 microscope. Percentage of area of stained area to total tissue area was quantified and analyzed using Metamorph software (Molecular Devices).
In order to confirm the effect of the novel ASM inhibitory compound of the Chemical Formula 2 on the lesion of Alzheimer's disease, the ASM inhibitory compound of the Chemical Formula 2 and AMI were administered orally for four months, respectively, as shown in FIG. 3.
To begin with, the profile of Aβ of Alzheimer's disease was identified. First, according to known methods in the art, the cerebral cortex and hippocampus of the mice were stained with thioflavin S (ThioS), confirming the fibrillary amyloid-β deposition. In addition, amyloid-β deposition was confirmed by carrying out the Aβ40 and Aβ42 immunofluorescence.

[4] = system: APP/PS1 mice; test: Morris water maze (MWM), learning and memory in APP/PS1 mice; assay type: in vivo, mouse; conditions: 100 mg/kg/day via drinking water; for spatial memory, cognitive and memory formation disability: versus unfed APP/PS1 mice
Description: as §1
(§3) Morris water maze (MWM) and fear conditioning experiments were conducted to identify potential effects on learning and memory. For MWM, the mice were learned the task four times a day for 10 days, followed by the removal of the platform at the 11th day and subsequently a probe trial. On the first day of the fear conditioning, the mice were placed in the conditioning chamber and subjected to sound stimulation (10 kHz, 70 dB) and electrical stimulation (0.3 mA, 1s). On the second day, their memory was checked without stimulation in the same conditioning chamber as on the first day. On the third day, memory tests were conducted for fear when only sound stimulation was given in another conditioning chamber. Open field tests and dark & light tests were conducted to assess activity and anxiety. In the open field test, the mice were placed in a square box for 10 minutes to measure their overall activity and time spent wandering the wall and center. In the dark & light test, the mice were placed in a rectangular box composed of a dark box and a bright box for 10 minutes to measure the time spent in each box, the number of round trips, and the time when the mice entered the bright box for the first time.
In order to determine the potential effect of the novel ASM inhibitory compound of the present invention on learning and cognition in the animal models of Alzheimer's disease, the MWM (Morris water maze) and the fear conditioning test were performed, respectively.

[5] = system: APP/PS1 mice; test: Fear conditioning test in APP/PS1 mice; assay type: in vivo, mouse; conditions: 100 mg/kg/day via drinking water
Description: as §1
as §3, with “In the dark & light test, the mice were placed in a rectangular box composed of a dark box and a bright box for 10 minutes to measure the time spent in each box, the number of round trips, and the time when the mice entered the bright box for the first time.” left out

[6] = system: APP/PS1 mice; test: Open field test and dark & light test (activity and anxiety) in APP/PS1 mice; assay type: in vivo, mouse; conditions: 100 mg/kg/day via drinking water, versus APP/PS1 mice
Description: as §1
as §3, with “In the dark & light test, the mice were placed in a rectangular box composed of a dark box and a bright box for 10 minutes to measure the time spent in each box, the number of round trips, and the time when the mice entered the bright box for the first time.” left out

[7] = system: APP/PS1 mice; test: Astrocytes (GFAP immunofluorescence) in cerebral cortex of APP/PS1 mice; assay type: in vivo, mouse; conditions: 100 mg/kg/day via drinking water, versus APP/PS1 mice
Description: as §1, §2
(§4) In order to determine the effect of the novel ASM inhibitory compounds according to the present invention on the change of nerve inflammation in the APP/PS1 mice, the present inventors observed a change in astrocytes of their brains.

[8] = system: APP/PS1 mice; test: Real-time quantitative PCR of inflammatory cytokines (TNF-α, IL-1b, IL-6) in brain of APP/PS1 mice; assay type: in vivo, mouse; conditions: mRNA, cerebral cortex, 100 mg/kg/day via drinking water, versus wild-type
Description: as §1
Real-time quantitative PCR was used to measure the expression levels of inflammatory cytokines (TNF-α, IL-1b, and IL-6). Total RNAs were extracted from brain tissues using RNeasy Plus mini kit (Qiagen, Korea, Ltd.), while cDNAs were synthesized from 5 μg of total RNAs using a kit from Clontech (Mountain View, Calif.). Also, using Corbett research RG-6000 real-time PCR instrument, PCR was performed at 95° C. for 10 minutes; 95° C. for 10 seconds; 58° C. for 15 seconds; 72° C. for 20 seconds as one cycle, while real-time quantitative PCR was performed in which 40 cycles were repeated.
as §4

[9] = system: APP/PS1 mice; test: Western blotting of autophagy-related proteins (LC3, Beclin-1, cathepsin D, p62) in brain tissue of APP/PS1 mice; assay type: in vivo, mouse
Description: as §1
Expression of the following genes was analyzed using Western blotting. First, antibodies against LC3, Becklin-1, p62 (All of them were purchased from Cell Signaling Technologies), Cathepsin D (R&D systems) and β-actin (Santa Cruz) were used, while densitometric quantification was performed using ImageJ Software (US National Institutes of Health).
In order to verify the mechanism of the ASM inhibitory compound of the Chemical Formula 2 in the autophagy-related pathways upon its administration, the conversion of LC3-I into LC3-II, and the expression levels of Beclin-1, cathepsin D and p62 in the brain tissue samples of the WT mice, APP/PS1 mice, and APP/PS1 mice treated with the ASM inhibitory compound of the Chemical Formula 2 which were 9.5 months old, respectively, were confirmed by Western blotting experiments.

[10] = 9.5 months old APP/PS1 mice, treated versus untreated

SMILES | change of ASM activity [1] | ASM concentration level in brain tissues [2] | ASM concentration level in plasma [2] | Aβ40 deposition [3] | Aβ42 deposition [3] | fibrillary Aβ deposition (thioflavin S) [3] | spatial memory, cognitive and memory formation disability [4] | further results
CCCCCCCCCCCCn1cc(C(N)(CO)CO)nn1 [Chemical Formula 2, 2-amino-2-(1-dodecyl-1H-1,2,3-triazol-4-yl)propane-1,3-diol] | markedly reduced | remarkably low | remarkably low | significantly lower | significantly lower | significantly lower | improved | ASM inhibitory effect compared with the other substances (AMI, FTY720) ([1]; PS1 fibroblasts): more remarkably effective in inhibiting ASM activity than the other substances; ASM inhibition in plasma and brain tissues compared with AMI ([2]; APP/PS1 mice): more significantly effective in inhibiting ASM activity than AMI; amyloid-β deposition compared with mice treated with AMI [3]: more remarkably reduced; cognitive improvement compared with AMI [4]: more pronounced; memory in the fear conditioning test (contextual and tone tasks) [5]: effect of improving the memory; activity and anxiety [6]: significantly improved; activity of astrocytes (GFAP) [7]: significantly decreased; gene expression of IL-1b [8]: restored to their normal levels; gene expression of IL-6 [8]: restored to their normal levels; gene expression of TNF-α [8]: restored to their normal levels; conversion of LC3-I to LC3-II [9, 10]: decreased; expression level of cathepsin D [9, 10]: decreased; expression level of p62 [9, 10]: decreased; expression of Beclin-1 ([9]; 9.5 months old, WT, APP/PS1 and treated APP/PS1 mice compared): little difference
CN(C)CCC=C1c2ccccc2CCc2ccccc21 [AMI, amitriptyline, reference compound] | markedly reduced | remarkably low | remarkably low | significantly lower | significantly lower | significantly lower | improved | –
CCCCCCCCc1ccc(CCC(N)(CO)CO)cc1 [FTY720, reference compound] | markedly reduced | – | – | – | – | – | – | –
